Reference: the kinase profiling compilation of Christmann-Franck et al. (2016)

How the values were obtained:
Assay in all cases: radiometric filter-binding kinase assay
YES1 (human) = YES1 (human) (UniProt P07947); settings: compound 10.0 µM
PRKCA (human) = PRKCA (human) (UniProt P17252)
IRAK4 (human) = IRAK4 (human) (UniProt Q9NWZ3); settings: compound 10.0 µM
MARK4 (human) = MARK4 (human) (UniProt Q96L34); settings: compound 10.0 µM
MAPK1 (human) = MAPK1 (human) (UniProt P28482)
SRPK1 (human) = SRPK1 (human) (UniProt Q96SB4)
INSR (human) = INSR (human) (UniProt P06213); settings: compound 10.0 µM
FLT1 (human) = FLT1 (human) (UniProt P17948); settings: compound 10.0 µM
MAPKAPK3 (human) = MAPKAPK3 (human) (UniProt Q16644)
CSNK2A1 (human) = CSNK2A1 (human) (UniProt P68400)
AURKA (human) = AURKA (human) (UniProt O14965); settings: compound 10.0 µM
[1] = tested on: RPS6KB1 (human), P23443 [T412E]
MAPK11 (human) = MAPK11 (human) (UniProt Q15759)
JAK2 JH1 JH2 (human) = JAK2 JH1 JH2 (human) (UniProt O60674); settings: compound 10.0 µM
HIPK2 (human) = HIPK2 (human) (UniProt Q9H2X6)
INSRR (human) = INSRR (human) (UniProt P14616); settings: compound 10.0 µM
RPS6KA1 KD1 KD2 (human) = RPS6KA1 KD1 KD2 (human) (UniProt Q15418)
MAPK15 (human) = MAPK15 (human) (UniProt Q8TD08)
NEK2 (human) = NEK2 (human) (UniProt P51955)
MKNK2 (human) = MKNK2 (human) (UniProt Q9HBH9)
CSNK1D (human) = CSNK1D (human) (UniProt P48730)
MAP3K1 (human) = MAP3K1 (human) (UniProt Q13233); settings: compound 10.0 µM
BTK (human) = BTK (human) (UniProt Q06187); settings: compound 10.0 µM
MARK3 (human) = MARK3 (human) (UniProt P27448)
RIPK2 (human) = RIPK2 (human) (UniProt O43353); settings: compound 10.0 µM
CLK2 (human) = CLK2 (human) (UniProt P49760); settings: compound 10.0 µM
[2] = tested on: AKT2 (human), P31751 [S474D]
RPS6KA5 KD1 KD2 (human) = RPS6KA5 KD1 KD2 (human) (UniProt O75582)
DYRK2 (human) = DYRK2 (human) (UniProt Q92630)
MAPK14 (human) = MAPK14 (human) (UniProt Q16539)
[3] = target: STK11 CAB39 STRADA (human) (UniProt Q9Y376+Q7RTN6+Q15831); settings: compound 10.0 µM
HIPK1 (human) = HIPK1 (human) (UniProt Q86Z02); settings: compound 10.0 µM
NEK6 (human) = NEK6 (human) (UniProt Q9HC98)
NTRK1 (human) = NTRK1 (human) (UniProt P04629); settings: compound 10.0 µM
MAP3K9 (human) = MAP3K9 (human) (UniProt P80192); settings: compound 10.0 µM

Sequence of MAPKAPK3 (human) (Q16644 whole entry, looked up): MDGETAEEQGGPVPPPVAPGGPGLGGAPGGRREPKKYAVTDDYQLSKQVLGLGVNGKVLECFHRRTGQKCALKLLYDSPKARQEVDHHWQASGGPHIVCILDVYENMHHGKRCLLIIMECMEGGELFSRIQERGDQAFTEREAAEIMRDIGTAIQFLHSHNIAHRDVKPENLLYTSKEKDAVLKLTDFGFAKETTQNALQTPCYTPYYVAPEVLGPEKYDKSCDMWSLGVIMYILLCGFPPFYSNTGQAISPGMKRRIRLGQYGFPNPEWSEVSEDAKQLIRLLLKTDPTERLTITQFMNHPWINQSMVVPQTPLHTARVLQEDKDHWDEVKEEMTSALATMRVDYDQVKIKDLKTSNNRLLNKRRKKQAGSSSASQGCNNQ
Sequence of MAPK15 (human) (Q8TD08 whole entry, looked up): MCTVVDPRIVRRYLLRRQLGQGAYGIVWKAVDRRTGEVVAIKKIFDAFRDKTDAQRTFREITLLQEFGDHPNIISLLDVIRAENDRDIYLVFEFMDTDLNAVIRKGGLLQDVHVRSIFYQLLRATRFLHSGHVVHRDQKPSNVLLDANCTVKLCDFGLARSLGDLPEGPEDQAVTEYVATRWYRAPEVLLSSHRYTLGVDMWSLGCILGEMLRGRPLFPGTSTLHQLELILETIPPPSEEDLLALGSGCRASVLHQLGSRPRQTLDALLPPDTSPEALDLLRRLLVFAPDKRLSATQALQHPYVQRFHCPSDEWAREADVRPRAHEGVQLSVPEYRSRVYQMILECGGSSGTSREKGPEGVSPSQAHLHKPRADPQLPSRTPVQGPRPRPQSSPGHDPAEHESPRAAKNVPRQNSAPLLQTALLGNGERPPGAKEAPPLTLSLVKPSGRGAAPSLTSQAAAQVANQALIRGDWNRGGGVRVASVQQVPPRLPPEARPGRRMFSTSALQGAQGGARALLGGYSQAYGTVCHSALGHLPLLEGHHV
Sequence of RPS6KA1 KD1 KD2 (human) (Q15418 whole entry, looked up): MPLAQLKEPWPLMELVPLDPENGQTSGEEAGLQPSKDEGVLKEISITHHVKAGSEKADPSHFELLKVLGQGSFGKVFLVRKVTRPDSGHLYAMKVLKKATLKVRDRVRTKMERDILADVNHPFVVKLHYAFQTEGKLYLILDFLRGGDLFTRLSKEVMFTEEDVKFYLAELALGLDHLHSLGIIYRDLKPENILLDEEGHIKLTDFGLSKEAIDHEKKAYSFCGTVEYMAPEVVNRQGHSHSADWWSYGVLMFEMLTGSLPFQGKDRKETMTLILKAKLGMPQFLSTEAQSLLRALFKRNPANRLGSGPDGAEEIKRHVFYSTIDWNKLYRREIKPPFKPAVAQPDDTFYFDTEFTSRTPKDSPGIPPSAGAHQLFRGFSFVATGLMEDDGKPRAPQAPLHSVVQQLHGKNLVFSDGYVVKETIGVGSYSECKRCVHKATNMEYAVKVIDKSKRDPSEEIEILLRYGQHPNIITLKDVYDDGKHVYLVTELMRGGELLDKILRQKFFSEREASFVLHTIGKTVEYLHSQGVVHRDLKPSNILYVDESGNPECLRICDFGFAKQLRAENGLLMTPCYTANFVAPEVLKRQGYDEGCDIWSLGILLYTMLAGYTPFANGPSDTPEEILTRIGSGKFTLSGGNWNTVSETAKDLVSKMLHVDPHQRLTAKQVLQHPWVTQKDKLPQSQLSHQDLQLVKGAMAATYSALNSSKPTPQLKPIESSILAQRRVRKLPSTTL
Sequence of SRPK1 (human) (Q96SB4 whole entry, looked up): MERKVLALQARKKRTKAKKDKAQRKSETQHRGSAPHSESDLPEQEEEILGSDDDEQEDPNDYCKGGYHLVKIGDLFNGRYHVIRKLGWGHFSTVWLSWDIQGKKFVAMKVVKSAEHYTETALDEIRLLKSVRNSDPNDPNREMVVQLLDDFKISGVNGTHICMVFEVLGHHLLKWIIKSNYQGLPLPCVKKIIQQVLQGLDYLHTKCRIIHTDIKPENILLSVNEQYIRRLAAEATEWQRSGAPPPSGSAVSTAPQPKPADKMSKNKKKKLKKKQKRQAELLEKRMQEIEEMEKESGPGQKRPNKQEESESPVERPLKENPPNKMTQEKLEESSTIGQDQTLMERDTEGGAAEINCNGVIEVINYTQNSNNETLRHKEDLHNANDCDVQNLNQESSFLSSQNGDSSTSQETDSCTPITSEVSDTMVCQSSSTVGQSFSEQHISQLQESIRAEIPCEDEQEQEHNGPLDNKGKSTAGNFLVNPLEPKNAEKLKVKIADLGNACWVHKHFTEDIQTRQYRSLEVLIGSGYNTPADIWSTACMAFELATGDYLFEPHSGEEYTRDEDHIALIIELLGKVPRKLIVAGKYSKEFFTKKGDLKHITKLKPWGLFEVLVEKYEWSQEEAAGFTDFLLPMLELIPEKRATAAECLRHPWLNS
Sequence of CSNK1D (human) (P48730 whole entry, looked up): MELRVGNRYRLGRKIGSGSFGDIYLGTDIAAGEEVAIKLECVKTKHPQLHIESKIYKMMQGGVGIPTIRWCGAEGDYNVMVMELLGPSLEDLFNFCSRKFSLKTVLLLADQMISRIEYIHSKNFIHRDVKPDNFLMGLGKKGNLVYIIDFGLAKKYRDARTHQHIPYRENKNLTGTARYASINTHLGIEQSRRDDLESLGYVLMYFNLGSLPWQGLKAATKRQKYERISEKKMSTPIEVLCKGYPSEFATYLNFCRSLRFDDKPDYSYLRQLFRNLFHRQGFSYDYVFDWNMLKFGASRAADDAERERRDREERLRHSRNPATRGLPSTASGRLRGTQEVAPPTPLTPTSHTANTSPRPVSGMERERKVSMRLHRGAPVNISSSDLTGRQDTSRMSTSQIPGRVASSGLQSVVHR
Sequence of MKNK2 (human) (Q9HBH9 whole entry, looked up): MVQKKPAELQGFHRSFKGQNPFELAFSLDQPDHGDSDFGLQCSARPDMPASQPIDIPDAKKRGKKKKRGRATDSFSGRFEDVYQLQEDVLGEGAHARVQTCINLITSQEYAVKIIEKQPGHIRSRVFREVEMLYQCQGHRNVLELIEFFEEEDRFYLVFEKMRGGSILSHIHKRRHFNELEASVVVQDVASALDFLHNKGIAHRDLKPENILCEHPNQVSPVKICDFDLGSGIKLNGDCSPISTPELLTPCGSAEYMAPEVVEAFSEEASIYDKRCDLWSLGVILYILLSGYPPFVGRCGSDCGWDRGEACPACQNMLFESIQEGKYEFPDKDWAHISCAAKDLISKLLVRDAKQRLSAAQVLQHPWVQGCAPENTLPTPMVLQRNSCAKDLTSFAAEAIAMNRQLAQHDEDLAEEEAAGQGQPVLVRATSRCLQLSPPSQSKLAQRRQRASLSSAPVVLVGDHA
Sequence of MAPK1 (human) (P28482 whole entry, looked up): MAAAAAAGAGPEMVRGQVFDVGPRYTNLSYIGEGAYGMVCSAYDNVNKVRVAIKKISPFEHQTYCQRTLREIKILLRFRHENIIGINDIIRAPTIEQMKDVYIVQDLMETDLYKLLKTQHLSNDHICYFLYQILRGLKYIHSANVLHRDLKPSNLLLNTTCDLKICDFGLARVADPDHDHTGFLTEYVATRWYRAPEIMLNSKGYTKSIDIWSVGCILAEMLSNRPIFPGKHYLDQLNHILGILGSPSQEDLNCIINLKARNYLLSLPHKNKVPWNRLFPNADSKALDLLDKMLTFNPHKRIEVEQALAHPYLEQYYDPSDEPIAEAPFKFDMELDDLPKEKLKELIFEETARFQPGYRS
Sequence of MARK3 (human) (P27448 whole entry, looked up): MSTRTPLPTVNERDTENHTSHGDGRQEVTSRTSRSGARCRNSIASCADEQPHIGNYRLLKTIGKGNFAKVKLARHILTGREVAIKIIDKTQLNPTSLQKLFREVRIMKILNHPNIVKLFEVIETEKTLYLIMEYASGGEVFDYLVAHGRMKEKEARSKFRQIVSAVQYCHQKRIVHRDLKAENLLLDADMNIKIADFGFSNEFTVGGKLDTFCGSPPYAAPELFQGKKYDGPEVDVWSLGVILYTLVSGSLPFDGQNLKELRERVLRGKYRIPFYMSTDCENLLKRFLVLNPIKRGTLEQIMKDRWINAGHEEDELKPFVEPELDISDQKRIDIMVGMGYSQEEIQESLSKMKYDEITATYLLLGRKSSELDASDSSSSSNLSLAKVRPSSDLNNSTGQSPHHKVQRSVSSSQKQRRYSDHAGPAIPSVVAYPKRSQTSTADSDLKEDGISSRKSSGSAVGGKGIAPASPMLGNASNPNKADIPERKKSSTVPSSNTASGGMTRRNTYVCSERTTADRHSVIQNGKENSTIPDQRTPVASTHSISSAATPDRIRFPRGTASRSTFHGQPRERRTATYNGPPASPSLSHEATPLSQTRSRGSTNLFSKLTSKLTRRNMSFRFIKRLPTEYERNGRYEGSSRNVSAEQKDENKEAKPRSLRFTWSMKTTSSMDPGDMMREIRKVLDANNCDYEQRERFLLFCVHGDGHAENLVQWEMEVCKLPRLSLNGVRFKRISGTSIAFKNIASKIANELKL

- residual activity (YES1 (human)): 77%
- residual activity (PRKCA (human); compound 1.0 µM): 96%
- residual activity (PRKCA (human); compound 10.0 µM): 82%
- residual activity (PRKCA (human); compound 50.0 µM): 58%
- residual activity (IRAK4 (human)): 73%
- residual activity (MARK4 (human)): 99%
- residual activity (MAPK1 (human); compound 1.0 µM): 102%
- residual activity (MAPK1 (human); compound 10.0 µM): 79%
- residual activity (MAPK1 (human); compound 50.0 µM): 100%
- residual activity (SRPK1 (human); compound 1.0 µM): 111%
- residual activity (SRPK1 (human); compound 10.0 µM): 87%
- residual activity (SRPK1 (human); compound 50.0 µM): 93%
- residual activity (INSR (human)): 50%
- residual activity (FLT1 (human)): 51%
- residual activity (MAPKAPK3 (human); compound 1.0 µM): 121%
- residual activity (MAPKAPK3 (human); compound 10.0 µM): 64%
- residual activity (MAPKAPK3 (human); compound 50.0 µM): 97%
- residual activity (CSNK2A1 (human); compound 1.0 µM): 101%
- residual activity (CSNK2A1 (human); compound 10.0 µM): 82%
- residual activity (CSNK2A1 (human); compound 50.0 µM): 49%
- residual activity (AURKA (human)): 100%
- residual activity ([1]; compound 1.0 µM): 93%
- residual activity ([1]; compound 10.0 µM): 69%
- residual activity ([1]; compound 50.0 µM): 15%
- residual activity (MAPK11 (human); compound 1.0 µM): 112%
- residual activity (MAPK11 (human); compound 10.0 µM): 93%
- residual activity (MAPK11 (human); compound 50.0 µM): 108%
- residual activity (JAK2 JH1 JH2 (human)): 27%
- residual activity (HIPK2 (human); compound 1.0 µM): 60%
- residual activity (HIPK2 (human); compound 10.0 µM): 30%
- residual activity (HIPK2 (human); compound 50.0 µM): 3%
- residual activity (INSRR (human)): 62%
- residual activity (RPS6KA1 KD1 KD2 (human); compound 1.0 µM): 77%
- residual activity (RPS6KA1 KD1 KD2 (human); compound 10.0 µM): 63%
- residual activity (RPS6KA1 KD1 KD2 (human); compound 50.0 µM): 15%
- residual activity (NEK2 (human); compound 1.0 µM): 96%
- residual activity (NEK2 (human); compound 10.0 µM): 91%
- residual activity (NEK2 (human); compound 50.0 µM): 83%
- residual activity (MKNK2 (human); compound 1.0 µM): 74%
- residual activity (MKNK2 (human); compound 10.0 µM): 96%
- residual activity (MKNK2 (human); compound 50.0 µM): 34%
- residual activity (CSNK1D (human); compound 1.0 µM): 84%
- residual activity (CSNK1D (human); compound 10.0 µM): 94%
- residual activity (CSNK1D (human); compound 50.0 µM): 46%
- residual activity (MAP3K1 (human)): 90%
- residual activity (BTK (human)): 75%
- residual activity (MARK3 (human); compound 1.0 µM): 99%
- residual activity (MARK3 (human); compound 10.0 µM): 82%
- residual activity (MARK3 (human); compound 50.0 µM): 41%
- residual activity (RIPK2 (human)): 51%
- residual activity (CLK2 (human)): 55%
- residual activity ([2]; compound 1.0 µM): 108%
- residual activity ([2]; compound 10.0 µM): 67%
- residual activity ([2]; compound 50.0 µM): 76%
- residual activity (RPS6KA5 KD1 KD2 (human); compound 1.0 µM): 80%
- residual activity (RPS6KA5 KD1 KD2 (human); compound 10.0 µM): 65%
- residual activity (RPS6KA5 KD1 KD2 (human); compound 50.0 µM): 16%
- residual activity (DYRK2 (human); compound 1.0 µM): 40%
- residual activity (DYRK2 (human); compound 10.0 µM): 15%
- residual activity (DYRK2 (human); compound 50.0 µM): 1%
- residual activity (MAPK14 (human); compound 1.0 µM): 95%
- residual activity (MAPK14 (human); compound 10.0 µM): 97%
- residual activity (MAPK14 (human); compound 50.0 µM): 75%
- residual activity [3]: 69%
- residual activity (HIPK1 (human)): 48%
- residual activity (NEK6 (human); compound 1.0 µM): 104%
- residual activity (NEK6 (human); compound 10.0 µM): 96%
- residual activity (NEK6 (human); compound 50.0 µM): 87%
- residual activity (NTRK1 (human)): 67%
- residual activity (MAP3K9 (human)): 44%
SMILES: Oc1ccc(/C=C/c2cc(O)cc(O)c2)cc1
- residual activity (MAPK15 (human); compound 1.0 µM): 36%
- residual activity (MAPK15 (human); compound 10.0 µM): 10%
- residual activity (MAPK15 (human); compound 50.0 µM): 12%
